ChEMBL document CHEMBL5303304, “EUbOPEN Chemogenomics Library - IncuCyte” (2023)

Legend:
Assay type in all cases: toxicity, cell-based
HEK-293T = assay: Incucyte cell viability with HEK293T; conditions: human, 10 µM, compound concentration 10 uM
Fibroblast = assay: Incucyte cell viability with human fibroblast; conditions: 10 µM, compound concentration 10 uM
U2OS = assay: Incucyte cell viability with U2OS; conditions: human, 10 µM, compound concentration 10 uM
Further: unitless GR value; below 1 slowed growth and below 0 cell loss.

## CCNCCNC(=O)c1c(C)[nH]c(/C=C2\C(=O)Nc3ccc(F)cc32)c1C
HEK-293T; 6 h, replicate number 1
  Growth Rate: -0.62
HEK-293T; 6 h, replicate number 2
  Growth Rate: -0.16
HEK-293T; 12 h, replicate number 1
  Growth Rate: -0.52
HEK-293T; 12 h, replicate number 2
  Growth Rate: -0.09
HEK-293T; 18 h, replicate number 1
  Growth Rate: -0.32
HEK-293T; 18 h, replicate number 2
  Growth Rate: 0.09
HEK-293T; 24 h, replicate number 1
  Growth Rate: -0.09
HEK-293T; 24 h, replicate number 2
  Growth Rate: 0.21
Fibroblast; 6 h, replicate number 1
  Growth Rate: -0.96
Fibroblast; 12 h, replicate number 1
  Growth Rate: -1
Fibroblast; 12 h, replicate number 2
  Growth Rate: 0.44
Fibroblast; 18 h, replicate number 2
  Growth Rate: 0.18
Fibroblast; 24 h, replicate number 2
  Growth Rate: 0.1
U2OS; 0 h, replicate number 2
  Growth Rate: -0.6
U2OS; 18 h, replicate number 1
  Growth Rate: 0.78
U2OS; 18 h, replicate number 2
  Growth Rate: 0.77
U2OS; 24 h, replicate number 1
  Growth Rate: 0.69
U2OS; 24 h, replicate number 2
  Growth Rate: 0.7

## O=S(=O)(Nc1nncs1)c1cc(Cl)c(Oc2ccc(C(F)(F)F)cc2-c2ccnn2C2CNC2)cc1F
HEK-293T; 6 h, replicate number 1
  Growth Rate: 0.2
Fibroblast; 18 h, replicate number 1
  Growth Rate: 0.41
U2OS; 0 h, replicate number 1
  Growth Rate: 0.61
U2OS; 0 h, replicate number 2
  Growth Rate: -0.77
U2OS; 6 h, replicate number 2
  Growth Rate: 0.95
U2OS; 18 h, replicate number 1
  Growth Rate: 0.95
U2OS; 18 h, replicate number 2
  Growth Rate: 1
U2OS; 24 h, replicate number 1
  Growth Rate: 0.86
U2OS; 24 h, replicate number 2
  Growth Rate: 0.98

## Cc1cc(O)c(-c2ccc([C@@H](C)CN(C)C)cc2)c2c1[nH]c(=O)c1sccc12
HEK-293T; 6 h, replicate number 1
  Growth Rate: -0.94
HEK-293T; 6 h, replicate number 2
  Growth Rate: -0.93
HEK-293T; 12 h, replicate number 1
  Growth Rate: -0.89
HEK-293T; 12 h, replicate number 2
  Growth Rate: -0.74
HEK-293T; 18 h, replicate number 1
  Growth Rate: -0.72
HEK-293T; 18 h, replicate number 2
  Growth Rate: -0.54
HEK-293T; 24 h, replicate number 1
  Growth Rate: -0.64
HEK-293T; 24 h, replicate number 2
  Growth Rate: -0.41
Fibroblast; 0 h, replicate number 1
  Growth Rate: 0.34
Fibroblast; 0 h, replicate number 2
  Growth Rate: 0.6
Fibroblast; 6 h, replicate number 1
  Growth Rate: -1
Fibroblast; 6 h, replicate number 2
  Growth Rate: -0.58
Fibroblast; 12 h, replicate number 2
  Growth Rate: -0.46
Fibroblast; 18 h, replicate number 2
  Growth Rate: -0.35
Fibroblast; 24 h, replicate number 1
  Growth Rate: 0.28
Fibroblast; 24 h, replicate number 2
  Growth Rate: -0.3
U2OS; 0 h, replicate number 1
  Growth Rate: -0.87
U2OS; 0 h, replicate number 2
  Growth Rate: -0.95
U2OS; 12 h, replicate number 1
  Growth Rate: 0.42
U2OS; 12 h, replicate number 2
  Growth Rate: 0.43
U2OS; 18 h, replicate number 1
  Growth Rate: 0.16
U2OS; 18 h, replicate number 2
  Growth Rate: 0.08
U2OS; 24 h, replicate number 1
  Growth Rate: -0.11
U2OS; 24 h, replicate number 2
  Growth Rate: -0.1

## Cl.Cl.N#Cc1ccc(O[C@@H]2c3ccccc3C[C@H]2N2CCC[C@@H](N)C2)c(Cl)c1
HEK-293T; 6 h, replicate number 1
  Growth Rate: -0.97
HEK-293T; 6 h, replicate number 2
  Growth Rate: -0.57
HEK-293T; 12 h, replicate number 1
  Growth Rate: -0.93
HEK-293T; 12 h, replicate number 2
  Growth Rate: -0.24
HEK-293T; 18 h, replicate number 1
  Growth Rate: -0.77
HEK-293T; 18 h, replicate number 2
  Growth Rate: -0.13
HEK-293T; 24 h, replicate number 1
  Growth Rate: -0.66
HEK-293T; 24 h, replicate number 2
  Growth Rate: -0.04
Fibroblast; 6 h, replicate number 1
  Growth Rate: -1
Fibroblast; 6 h, replicate number 2
  Growth Rate: 0.35
Fibroblast; 12 h, replicate number 2
  Growth Rate: 0.27
Fibroblast; 18 h, replicate number 2
  Growth Rate: 0.29
Fibroblast; 24 h, replicate number 2
  Growth Rate: 0.37
U2OS; 0 h, replicate number 1
  Growth Rate: -1
U2OS; 12 h, replicate number 1
  Growth Rate: 0.7
U2OS; 12 h, replicate number 2
  Growth Rate: 0.96
U2OS; 18 h, replicate number 1
  Growth Rate: 0.67
U2OS; 18 h, replicate number 2
  Growth Rate: 0.86
U2OS; 24 h, replicate number 1
  Growth Rate: 0.72
U2OS; 24 h, replicate number 2
  Growth Rate: 0.93

## Cc1ccc(-c2c(C(=O)CF)n(CCCO)c3ncnc(N)c23)cc1
HEK-293T; 6 h, replicate number 1
  Growth Rate: -0.57
HEK-293T; 6 h, replicate number 2
  Growth Rate: 0.16
HEK-293T; 12 h, replicate number 1
  Growth Rate: 0.54
HEK-293T; 12 h, replicate number 2
  Growth Rate: 0.68
HEK-293T; 18 h, replicate number 1
  Growth Rate: 0.96
HEK-293T; 18 h, replicate number 2
  Growth Rate: 0.85
HEK-293T; 24 h, replicate number 2
  Growth Rate: 0.87
Fibroblast; 6 h, replicate number 2
  Growth Rate: -1
Fibroblast; 12 h, replicate number 2
  Growth Rate: -0.21
Fibroblast; 18 h, replicate number 1
  Growth Rate: 0.29
Fibroblast; 18 h, replicate number 2
  Growth Rate: 0.3
Fibroblast; 24 h, replicate number 1
  Growth Rate: 0.33
Fibroblast; 24 h, replicate number 2
  Growth Rate: 0.41
U2OS; 0 h, replicate number 1
  Growth Rate: 0.43
U2OS; 0 h, replicate number 2
  Growth Rate: -0.79
U2OS; 6 h, replicate number 2
  Growth Rate: 0.44
U2OS; 12 h, replicate number 1
  Growth Rate: 0.92
U2OS; 18 h, replicate number 2
  Growth Rate: 0.96
U2OS; 24 h, replicate number 2
  Growth Rate: 0.98

## CC[C@]1(C)C[C@@H](OC(=O)CSc2nnc(N)[nH]2)[C@@]2(C)[C@H](C)CC[C@@]3(CCC(=O)[C@H]32)[C@@H](C)[C@@H]1O
HEK-293T; 6 h, replicate number 1
  Growth Rate: 0.09
HEK-293T; 6 h, replicate number 2
  Growth Rate: 0.46
HEK-293T; 12 h, replicate number 1
  Growth Rate: 0.86
HEK-293T; 12 h, replicate number 2
  Growth Rate: 0.81
HEK-293T; 18 h, replicate number 1
  Growth Rate: 0.65
HEK-293T; 18 h, replicate number 2
  Growth Rate: 0.83
HEK-293T; 24 h, replicate number 1
  Growth Rate: 0.84
HEK-293T; 24 h, replicate number 2
  Growth Rate: 0.87
Fibroblast; 0 h, replicate number 2
  Growth Rate: -0.62
Fibroblast; 6 h, replicate number 1
  Growth Rate: -0.17
Fibroblast; 6 h, replicate number 2
  Growth Rate: -0.93
Fibroblast; 12 h, replicate number 2
  Growth Rate: 0.82
Fibroblast; 18 h, replicate number 1
  Growth Rate: 0.7
Fibroblast; 18 h, replicate number 2
  Growth Rate: 0.99
Fibroblast; 24 h, replicate number 2
  Growth Rate: 0.97
U2OS; 12 h, replicate number 1
  Growth Rate: 0.98
U2OS; 18 h, replicate number 1
  Growth Rate: 0.95
